Values of other authors, collected in patent publication US20060074243A1, “Hydroxamic acid and amide compounds and their use as protease inhibitors” (Pharmacia Corporation, priority 2002, published 2006).

System: solid tumor cancers (colorectal, pancreatic, ovarian, and prostate)
Details: cited from earlier work

SMILES: CNC(=O)[C@@H](NC(=O)[C@H](CC(C)C)[C@H](O)C(=O)NO)C(C)(C)C [Marimastat]
- most common drug-related toxicity (clinical trials): musculoskeletal pain and stiffness
- rise of cancer-specific antigens used as surrogate markers for biological activity (patients with advanced, rapidly progressive, treatment-refractory solid tumor cancers): dose-related reduction
